According to the supplement of paper PMC10307832:

Legend:
Assay in all cases: relative viability (nuclei count vs DMSO), 5 days (fraction); higher = more cells survive
KIN001-266 + Decitabine = compound: CCN1CCC(CC1)N2C=C(N=N2)CNC3=CC4=C(C(=CN=C4C(=C3)Cl)C#N)NC5=CC(=C(C=C5)F)Cl [KIN001-266] + Nc1ncn([C@H]2C[C@H](O)[C@@H](CO)O2)c(=O)n1 [Decitabine] (partner 2 µM)
Method in brief: (§1)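 The day after seeding in 1536-well plates, lung cancer cell lines were treated by pin tool with a single drug, or with a fixed anchor-drug dose together with five library-drug doses (not always all listed) in √10 steps. After 5 days, a combined fix-and-stain solution (final 0.05% Triton X-100, 1% formaldehyde, 1 ug/ml Hoechst) was added. Nuclei counted on 4× images gave relative viability as treated counts over vehicle counts, reported as the median of duplicate plates.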

KIN001-266 + Olaparib = compound: CCN1CCC(CC1)N2C=C(N=N2)CNC3=CC4=C(C(=CN=C4C(=C3)Cl)C#N)NC5=CC(=C(C=C5)F)Cl [KIN001-266] + O=C(c1cc(Cc2n[nH]c(=O)c3ccccc23)ccc1F)N1CCN(C(=O)C2CC2)CC1 [Olaparib] (partner 8 µM)
Method in brief: as §1

KIN001-266 + Lapatinib = compound: CCN1CCC(CC1)N2C=C(N=N2)CNC3=CC4=C(C(=CN=C4C(=C3)Cl)C#N)NC5=CC(=C(C=C5)F)Cl [KIN001-266] + CS(=O)(=O)CCNCc1ccc(-c2ccc3ncnc(Nc4ccc(OCc5cccc(F)c5)c(Cl)c4)c3c2)o1 [Lapatinib] (partner 2 µM)
Method in brief: as §1

KIN001-266 + Luminespib = compound: CCN1CCC(CC1)N2C=C(N=N2)CNC3=CC4=C(C(=CN=C4C(=C3)Cl)C#N)NC5=CC(=C(C=C5)F)Cl [KIN001-266] + CCNC(=O)c1noc(-c2cc(C(C)C)c(O)cc2O)c1-c1ccc(CN2CCOCC2)cc1 [Luminespib] (partner 0.01 µM)
Method in brief: as §1

Row | Cell Line | relative viability (KIN001-266 + Decitabine; first compound 0.08 µM) | relative viability (KIN001-266 + Decitabine; first compound 0.253 µM) | relative viability (KIN001-266 + Decitabine; first compound 0.8 µM) | relative viability (KIN001-266 + Decitabine; first compound 2.53 µM) | relative viability (KIN001-266 + Decitabine; first compound 8 µM) | relative viability (KIN001-266 + Olaparib; first compound 0.08 µM) | relative viability (KIN001-266 + Olaparib; first compound 0.253 µM) | relative viability (KIN001-266 + Olaparib; first compound 0.8 µM) | relative viability (KIN001-266 + Olaparib; first compound 2.53 µM) | relative viability (KIN001-266 + Olaparib; first compound 8 µM) | relative viability (KIN001-266 + Lapatinib; first compound 0.08 µM) | relative viability (KIN001-266 + Lapatinib; first compound 0.253 µM) | relative viability (KIN001-266 + Lapatinib; first compound 0.8 µM) | relative viability (KIN001-266 + Lapatinib; first compound 2.53 µM) | relative viability (KIN001-266 + Lapatinib; first compound 8 µM) | relative viability (KIN001-266 + Luminespib; first compound 0.08 µM) | relative viability (KIN001-266 + Luminespib; first compound 0.253 µM) | relative viability (KIN001-266 + Luminespib; first compound 0.8 µM) | relative viability (KIN001-266 + Luminespib; first compound 2.53 µM) | relative viability (KIN001-266 + Luminespib; first compound 8 µM)
1 | LK-2 | 0.384 | 0.298 | 0.309 | 0.318 | 0.41 | 0.879 | 0.689 | 0.672 | 0.557 | 0.574 | 1.06 | 0.836 | 0.884 | 0.834 | 1.05 | 0.204 | 0.16 | 0.191 | 0.187 | 0.168
2 | COR-L23 | 0.487 | 0.497 | 0.466 | 0.464 | 0.389 | 0.372 | 0.367 | 0.345 | 0.293 | 0.294 | 0.797 | 0.894 | 0.998 | 0.904 | 0.983 | 0.638 | 0.636 | 0.694 | 0.621 | 0.423
3 | NCI-H1944 | 0.421 | 0.459 | 0.401 | 0.415 | 0.393 | 0.411 | 0.403 | 0.346 | 0.411 | 0.326 | 0.826 | 0.895 | 0.774 | 0.816 | 0.828 | 0.73 | 0.771 | 0.708 | 0.744 | 0.68
4 | NCI-H2405 | 0.772 | 0.78 | 0.783 | 0.694 | 0.627 | 0.889 | 0.905 | 0.906 | 0.853 | 0.642 | 1.08 | 1.23 | 1.09 | 1.16 | 0.936 | 0.743 | 0.712 | 0.628 | 0.701 | 0.516
5 | SK-LU-1 | 0.718 | 0.623 | 0.615 | 0.552 | 0.478 | 0.557 | 0.427 | 0.489 | 0.373 | 0.416 | 0.932 | 0.862 | 0.817 | 0.64 | 0.613 | 0.206 | 0.215 | 0.223 | 0.22 | 0.189
6 | EMC-BAC-2 | 1.04 | 1.04 | 0.965 | 0.984 | 0.988 | 0.546 | 0.519 | 0.449 | 0.437 | 0.46 | 0.906 | 0.907 | 0.879 | 0.917 | 0.942 | 1.27 | 1.25 | 1.11 | 1.18 | 1.25
7 | NCI-H1650 | 0.396 | 0.43 | 0.426 | 0.544 | 0.388 | 0.708 | 0.751 | 0.655 | 0.587 | 0.437 | 0.881 | 0.873 | 0.826 | 0.641 | 0.42 | 0.193 | 0.207 | 0.196 | 0.177 | 0.203
8 | NCI-H596 | 1.13 | 1.19 | 0.967 | 1.07 | 0.99 | 0.744 | 0.723 | 0.662 | 0.712 | 0.756 | 1.09 | 1.07 | 1.17 | 1.06 | 1.01 | 0.922 | 1.03 | 1.08 | 1.03 | 0.905
9 | LCLC-97TM1 | 0.22 | 0.226 | 0.226 | – | 0.168 | 0.302 | 0.295 | 0.406 | – | 0.167 | 0.836 | 0.868 | 1.14 | 1.04 | 0.844 | 0.953 | 0.77 | 0.643 | 0.603 | 0.24
10 | H3255 | 0.632 | 0.557 | 0.587 | 0.618 | 0.713 | 0.583 | 0.55 | 0.565 | 0.517 | 0.455 | 0.346 | 0.219 | 0.283 | 0.251 | 0.294 | 0.909 | 0.945 | 0.935 | 0.847 | 0.912
11 | LXF-289 | 0.379 | 0.365 | 0.369 | 0.34 | 0.414 | 1.01 | 1.02 | 1.03 | 1.01 | 1.03 | 0.901 | 0.898 | 0.862 | 0.865 | 0.96 | 0.633 | 0.72 | 0.72 | 0.705 | 0.794
12 | UMC-11 | 0.646 | 0.576 | 0.698 | 0.66 | 0.603 | 0.351 | 0.515 | 0.398 | 0.31 | 0.319 | 1.08 | 1.04 | 1.13 | 0.848 | 0.79 | 0.986 | 0.977 | 1.03 | 0.937 | 0.449
13 | LC-2-ad | 0.802 | 0.794 | 0.676 | 0.733 | 0.771 | 0.706 | 0.727 | 0.664 | 0.693 | 0.635 | 0.999 | 0.847 | 1.02 | 0.972 | 0.929 | 0.943 | 1.19 | 1.13 | 1.06 | 0.931
14 | SK-MES-1 | 0.383 | 0.37 | 0.386 | 0.391 | 0.433 | 0.783 | 0.651 | 0.73 | 0.492 | 0.492 | 0.47 | 0.522 | 0.414 | 0.405 | 0.418 | 0.783 | 0.779 | 1.06 | 0.739 | 0.427
15 | A-427 | 0.616 | 0.566 | 0.521 | 0.508 | 0.535 | 0.723 | 0.789 | 0.726 | 0.615 | 0.639 | 1.07 | 1.08 | 1.04 | 0.921 | 1.01 | 0.874 | 0.843 | 0.979 | 0.913 | 0.969
16 | NCI-H322M | 0.733 | 0.745 | 0.74 | 0.648 | 0.672 | 0.802 | 0.737 | 0.764 | 0.72 | 0.698 | 0.575 | 0.604 | 0.601 | 0.57 | 0.489 | 0.86 | 0.576 | 1.05 | 0.83 | 0.926
17 | NCI-H1975 | 0.391 | 0.373 | 0.377 | 0.404 | 0.39 | 0.823 | 0.81 | 0.791 | 0.734 | 0.69 | 0.902 | 0.938 | 1.03 | 1.05 | 0.969 | 0.26 | 0.187 | 0.276 | 0.221 | 0.215
18 | NCI-H1437 | 0.564 | 0.542 | 0.556 | 0.504 | 0.567 | 0.644 | 0.649 | 0.666 | 0.582 | 0.377 | 0.781 | 0.819 | 0.746 | 0.798 | 0.483 | 1.08 | 1.13 | 1.1 | 1.09 | 0.854
19 | NCI-H2009 | 0.394 | 0.367 | 0.437 | 0.357 | 0.391 | 0.721 | 0.667 | 0.657 | 0.65 | 0.321 | 0.981 | 1.07 | 0.905 | 0.927 | 0.645 | 1.04 | 0.969 | 1.05 | 0.983 | 0.881
20 | NCI-H1651 | 0.629 | 0.599 | 0.546 | 0.572 | 0.634 | 0.185 | 0.165 | 0.175 | 0.15 | 0.167 | 0.912 | 0.931 | 0.85 | 0.962 | 0.84 | 0.845 | 0.936 | 0.753 | 0.861 | 0.593
21 | NCI-H1666 | 0.806 | 0.737 | 0.662 | 0.725 | 0.754 | 0.77 | 0.754 | 0.607 | 0.739 | 0.73 | 0.804 | 0.646 | 0.671 | 0.646 | 0.509 | 0.982 | 0.993 | 1.02 | 0.951 | 0.923
22 | NCI-H1734 | 0.513 | 0.512 | 0.421 | 0.48 | 0.433 | 0.719 | 0.6 | 0.505 | 0.551 | 0.425 | 1.1 | 1.32 | 1.03 | 0.982 | 1.02 | 0.196 | 0.195 | 0.191 | 0.19 | 0.193
23 | EPLC-272H | 0.382 | 0.404 | 0.338 | 0.344 | 0.319 | 0.885 | 0.869 | 1.08 | 0.643 | 0.273 | 1.03 | 0.982 | 1.05 | 0.732 | 0.797 | 0.253 | 0.268 | 0.323 | 0.181 | 0.176
24 | NCI-H2023 | 0.21 | 0.217 | 0.217 | 0.216 | 0.289 | 0.465 | 0.489 | 0.528 | 0.47 | 0.411 | 0.774 | 0.971 | 1.09 | 0.855 | 0.34 | 0.738 | 0.698 | 0.764 | 0.696 | 0.865
25 | BEN | 0.975 | 0.696 | 0.754 | 0.623 | 0.752 | 1 | 0.988 | 1.12 | 1.17 | 0.977 | 0.779 | 0.764 | 0.77 | 0.835 | 0.953 | 0.559 | 0.651 | 0.861 | 0.288 | 0.458
26 | COR-L 105 | 0.584 | 0.661 | 0.641 | 0.725 | 0.677 | 0.729 | 0.619 | 0.651 | 0.521 | 0.566 | 0.349 | 0.393 | 0.34 | 0.417 | 0.381 | 0.616 | 0.802 | 0.758 | 0.743 | 1.02
27 | ABC-1 | 1.19 | 1.18 | 1.07 | 1.09 | 0.855 | 0.737 | 0.583 | 0.767 | 0.795 | 0.863 | 1.18 | 1.08 | 1.12 | 1.14 | 1.1 | 0.757 | 0.956 | 0.655 | 1.02 | 0.378
